Paper PMC6982876, “Synthesis of Novel Benzodifuranyl; 1,3,5-Triazines; 1,3,5-Oxadiazepines; and Thiazolopyrimidines Derived from Visnaginone and Khellinone as Anti-Inflammatory and Analgesic Agents” (Molecules, 2020)
Marks after values point to notes of the source that are not given here.

How the values were obtained:
ovine COX-1 = target: T1, ovine COX-1 (Ovis aries, UniProt P05979); experiment: In vitro COX inhibitor screening assay (EIA kit, Cayman), COX-1; type: biochemical; details: mean of two determinations, enzyme kit, read-out: COX1 IC50
T1 construct: purchased Cayman Chemical, Ann Arbor, MI, USA 560131
T1 sequence (P05979 25-600): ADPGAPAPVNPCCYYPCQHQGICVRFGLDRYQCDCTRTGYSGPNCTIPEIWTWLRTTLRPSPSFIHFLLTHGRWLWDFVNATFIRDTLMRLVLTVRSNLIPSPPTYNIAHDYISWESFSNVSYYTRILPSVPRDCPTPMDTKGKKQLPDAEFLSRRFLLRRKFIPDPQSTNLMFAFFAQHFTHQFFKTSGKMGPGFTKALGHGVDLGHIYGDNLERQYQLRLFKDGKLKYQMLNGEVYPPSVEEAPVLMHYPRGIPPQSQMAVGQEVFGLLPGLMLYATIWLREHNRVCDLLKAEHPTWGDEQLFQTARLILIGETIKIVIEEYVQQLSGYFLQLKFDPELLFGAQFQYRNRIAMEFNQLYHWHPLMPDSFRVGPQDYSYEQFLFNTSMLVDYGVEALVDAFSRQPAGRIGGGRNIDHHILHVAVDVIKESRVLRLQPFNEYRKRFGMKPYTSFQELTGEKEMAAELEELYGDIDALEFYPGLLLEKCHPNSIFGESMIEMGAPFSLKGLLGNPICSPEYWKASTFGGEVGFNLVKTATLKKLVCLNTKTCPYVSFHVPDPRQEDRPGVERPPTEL
Protocol: (§1) Furthermore, the selectivity index for COX-2 (COX-1 IC50 / COX-2 IC50) was calculated for the compounds.

[1] = test system: carrageenan-induced paw edema in rats; experiment: Carrageenan-induced paw edema (anti-inflammatory activity); type: in vivo; details: 10 mg/kg oral; for % Change in Paw Height (Mean ± SEM): n = 5
Protocol: Albino rats (150–180 g) were used. The rats were divided into 11 experimental groups of five rats each. One hour after oral administration of the compounds (10 mg/kg), 0.1 mL of 1% carrageenan solution was injected in the left hind paw of each animal. Rat paw volumes were measured with a digital caliber plethysmometer (UGO Basile, Varese, Italy) used to measure inflammation height at 0, 1, 2, and 3 h after carrageenan injection. The percentage increase in inflammation in the left hind paw, in comparison to the uninjected right hind paw, was determined, calculated, and expressed as the amount of inflammation. […] The anti-inflammatory activity of the selected analgesic compounds after 3 h was expressed as percentage inhibition of edema, which was calculated according to the following equation: (2) Inhibition of edema (%) =Vcont−Vtest/Vcont×100* where V cont is the edema volume in the control group, and V test is the edema volume in the group of the screened compound.

[2] = test system: acetic acid-induced writhing in mice; experiment: Acetic acid-induced writhing test (analgesic activity); type: in vivo; details: 10 mg/kg p.o.; for Writhing Number in 20 min (Mean ± SEM): acetic acid 1 h after dosing; for Analgesic Activity (% protection): writhing test
Protocol: The analgesic activity of the compounds was performed using the writhing test as described by Gawade et al.. Mice weight ranged from 25 to 30 g. Then, mice were divided into 18 different groups, each containing five animals. The animals fasted for 8 h before the experiment. Administration of the compounds (10 mg/kg, p.o.) was performed orally. Equal doses of diclofenac as the reference drug and saline as a negative control were also administrated orally. Writhing was induced one hour after compound administration by using 0.1 mL of 1% glacial acetic acid at a volume of 0.1 mL/10 g body weight. The number of writhing responses (stretching of the abdomen, extension of hind limbs, twisting of the trunk, and elongation of the body) observed was counted for 20 min. The protection percentile against acetic acid-induced writhing was calculated according to the following formula: (1) Analgesic activity (%) =n−n′/n×100* where n is the mean number of writhes of the control group, and n’ is the mean number of writhes of the tested compound group.

human recombinant COX-2 = target: T2, human recombinant COX-2 (Homo sapiens, UniProt P35354); experiment: In vitro COX inhibitor screening assay (EIA kit, Cayman), COX-2; type: biochemical; details: for COX2 (SI) selectivity index: COX-1 IC50 / COX-2 IC50; for IC50: COX-2, mean of two determinations, enzyme kit, read-out: COX2 IC50
T2 construct: purchased Cayman Chemical, Ann Arbor, MI, USA 560131
T2 sequence (P35354 18-604): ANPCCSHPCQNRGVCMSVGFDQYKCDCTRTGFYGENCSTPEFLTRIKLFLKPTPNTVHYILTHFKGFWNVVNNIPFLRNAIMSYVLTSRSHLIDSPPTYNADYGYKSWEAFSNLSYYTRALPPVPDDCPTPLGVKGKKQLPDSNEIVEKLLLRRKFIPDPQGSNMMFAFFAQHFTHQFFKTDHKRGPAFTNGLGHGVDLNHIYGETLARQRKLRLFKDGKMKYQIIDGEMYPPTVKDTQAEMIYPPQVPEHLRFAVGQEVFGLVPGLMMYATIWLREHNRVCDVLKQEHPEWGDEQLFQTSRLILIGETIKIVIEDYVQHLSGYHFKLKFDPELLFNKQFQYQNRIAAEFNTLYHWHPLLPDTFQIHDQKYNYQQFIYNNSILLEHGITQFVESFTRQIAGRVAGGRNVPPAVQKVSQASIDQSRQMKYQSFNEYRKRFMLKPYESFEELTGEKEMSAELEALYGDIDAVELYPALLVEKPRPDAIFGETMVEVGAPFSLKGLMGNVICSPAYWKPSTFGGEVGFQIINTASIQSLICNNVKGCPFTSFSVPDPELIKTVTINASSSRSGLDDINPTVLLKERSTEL
Protocol: as §1

## COc1c2occc2c(OC)c2c(C)c(C(=O)Nc3cc(=O)[nH]c(=S)[nH]3)oc12 [Compound 5b, 4,8-dimethoxy-3-methyl-N-(6-oxo-2-thioxo-1,2,3,6-tetrahydropyrimidin-4-yl) benzo [1,2-b: 5,4-b`] difuran-2-carboxamide]
Ovine COX-1
  IC50: 17.9 µM
[1]; 1 hr after carrageenan
  % Change in Paw Height (Mean ± SEM): 0.42 ± 0.04 ^a %
[1]; 2 hr after carrageenan
  % Change in Paw Height (Mean ± SEM): 0.34 ± 0.01 ^a %
[1]; 3 hr after carrageenan
  Anti-Inflammatory Activity (% Inhibition of Edema): 30%
  % Change in Paw Height (Mean ± SEM): 0.44 ± 0.03 ^a %
other
  melting point: 266 to 268 °C
[2]; n = 5
  Writhing Number in 20 min (Mean ± SEM): 52 ± 1.4 ^a,b
  Analgesic Activity (% protection): 23 ± 0.70%
Human recombinant COX-2
  COX2 (SI) selectivity index: 50
  IC50: 0.36 µM

## COc1c2ccoc2cc2oc(C(=O)Nc3cc(=O)n4c(n3)SCC4=O)c(C)c12 [Compound 7a, N-(3,5-dioxo-2,3-dihydro-5H-thiazolo [3,2-a]pyrimidin-7-yl)-4-methoxy-3-methylbenzo [1,2-b: 5,4-b`] difuran-2-carboxamide]
Ovine COX-1
  IC50: 7.95 µM
[1]; 1 hr after carrageenan
  % Change in Paw Height (Mean ± SEM): 0.31 ± 0.01 ^a %
[1]; 2 hr after carrageenan
  % Change in Paw Height (Mean ± SEM): 0.26 ± 0.02 ^a %
[1]; 3 hr after carrageenan
  Anti-Inflammatory Activity (% Inhibition of Edema): 50%
  % Change in Paw Height (Mean ± SEM): 0.30 ± 0.02 ^a %
other
  melting point: 308 to 310 °C
[2]; n = 5
  Writhing Number in 20 min (Mean ± SEM): 42 ± 1.8 ^a,b
  Analgesic Activity (% protection): 33 ± 1.70%
Human recombinant COX-2
  COX2 (SI) selectivity index: 79
  IC50: 0.101 µM

## COc1c2ccoc2cc2oc(C(Cl)=Nc3cc(Cl)nc(SC)n3)c(C)c12 [Compound 9a, N-(6-chloro-2-(methylthio)pyrimidin-4-yl)-4-methoxy-3-methylbenzo [1,2-b: 5,4-b`] difuran-2-carbimidoyl chloride]
Ovine COX-1
  IC50: 12 µM
[1]; 1 hr after carrageenan
  % Change in Paw Height (Mean ± SEM): 0.35 ± 0.01 ^a %
[1]; 2 hr after carrageenan
  % Change in Paw Height (Mean ± SEM): 0.28 ± 0.02 ^a %
[1]; 3 hr after carrageenan
  Anti-Inflammatory Activity (% Inhibition of Edema): 45%
  % Change in Paw Height (Mean ± SEM): 0.33 ± 0.02 ^a %
other
  melting point: > 350 °C
[2]; n = 5
  Writhing Number in 20 min (Mean ± SEM): 45 ± 2.4 ^a,b
  Analgesic Activity (% protection): 30 ± 1.05%
Human recombinant COX-2
  COX2 (SI) selectivity index: 70
  IC50: 0.17 µM

## COc1c2occc2c(OC)c2c(C)c(C(=O)Nc3cc(=O)n4c(n3)SCC4=O)oc12 [Compound 7b, N-(3,5-dioxo-2,3-dihydro-5H-thiazolo[3,2-a]pyrimidin-7-yl)-4,8-dimethoxy-3-methylbenzo [1,2-b:5,4-b`]difuran-2-carboxamide]
Ovine COX-1
  IC50: 7.18 µM
[1]; 1 hr after carrageenan
  % Change in Paw Height (Mean ± SEM): 0.30 ± 0.02 ^a %
[1]; 2 hr after carrageenan
  % Change in Paw Height (Mean ± SEM): 0.25 ± 0.01 ^a %
[1]; 3 hr after carrageenan
  Anti-Inflammatory Activity (% Inhibition of Edema): 52%
  % Change in Paw Height (Mean ± SEM): 0.29 ± 0.01 ^a %
other
  melting point: 327 to 329 °C
[2]; n = 5
  Analgesic Activity (% protection): 35 ± 1.14%
Human recombinant COX-2
  COX2 (SI) selectivity index: 80
  IC50: 0.09 µM

## COc1c2ccoc2cc2oc(C(Cl)=Nc3cc(Cl)nc(=S)[nH]3)c(C)c12 [Compound 8a, N-(6-chloro-2-thioxo-2,3-dihydropyrimidin-4-yl)-4-methoxy-3-methylbenzo [1,2-b: 5,4-b`] difuran-2-carbimidoyl chloride]
Ovine COX-1
  IC50: 17 µM
[1]; 1 hr after carrageenan
  % Change in Paw Height (Mean ± SEM): 0.37 ± 0.02 ^a %
[1]; 2 hr after carrageenan
  % Change in Paw Height (Mean ± SEM): 0.30 ± 0.03 ^a %
[1]; 3 hr after carrageenan
  Anti-Inflammatory Activity (% Inhibition of Edema): 40%
  % Change in Paw Height (Mean ± SEM): 0.37 ± 0.02 ^a %
other
  melting point: 337 to 339 °C
[2]; n = 5
  Writhing Number in 20 min (Mean ± SEM): 48 ± 1.9 ^a,b
  Analgesic Activity (% protection): 27 ± 0.60%
Human recombinant COX-2
  COX2 (SI) selectivity index: 61
  IC50: 0.28 µM

## COc1c2occc2c(OC)c2c(C)c(C(Cl)=Nc3cc(Cl)nc(SC)n3)oc12 [Compound 9b, N-(6-chloro-2-(methylthio)pyrimidin-4-yl)-4,8-dimethoxy-3-methylbenzo [1,2-b: 5,4-b`] difuran-2-carbimidoyl chloride]
Ovine COX-1
  IC50: 11.1 µM
[1]; 1 hr after carrageenan
  % Change in Paw Height (Mean ± SEM): 0.33 ± 0.02 ^a %
[1]; 2 hr after carrageenan
  % Change in Paw Height (Mean ± SEM): 0.27 ± 0.01 ^a %
[1]; 3 hr after carrageenan
  Anti-Inflammatory Activity (% Inhibition of Edema): 48%
  % Change in Paw Height (Mean ± SEM): 0.31 ± 0.01 ^a %
other
  melting point: > 350 °C
[2]; n = 5
  Writhing Number in 20 min (Mean ± SEM): 44 ± 2.5 ^a,b
  Analgesic Activity (% protection): 32 ± 1.2%
Human recombinant COX-2
  COX2 (SI) selectivity index: 72
  IC50: 0.155 µM

## COc1c2occc2c(OC)c2c(C)c(C(=O)Nc3cc(=O)[nH]c(SCC(=O)O)n3)oc12 [Compound 6b, 2-((4-(4,8-dimethoxy-3-methylbenzo [1,2-b: 5,4-b`]difuran-2-carboxamido)-6-oxo-1,6-dihydropyrimidin-2-yl)thio) acetic acid]
Ovine COX-1
  IC50: 17.1 µM
[1]; 1 hr after carrageenan
  % Change in Paw Height (Mean ± SEM): 0.38 ± 0.03 ^a %
[1]; 2 hr after carrageenan
  % Change in Paw Height (Mean ± SEM): 0.31 ± 0.04 ^a %
[1]; 3 hr after carrageenan
  Anti-Inflammatory Activity (% Inhibition of Edema): 38%
  % Change in Paw Height (Mean ± SEM): 0.39 ± 0.01 ^a %
other
  melting point: 293 to 295 °C
[2]; n = 5
  Writhing Number in 20 min (Mean ± SEM): 49 ± 1.2 ^a,b
  Analgesic Activity (% protection): 26 ± 0.80%
Human recombinant COX-2
  COX2 (SI) selectivity index: 55
  IC50: 0.311 µM

## O=C(O)Cc1ccccc1Nc1c(Cl)cccc1Cl [Diclofenac, reference compound]
[1]; 2 hr after carrageenan
  % Change in Paw Height (Mean ± SEM): 0.13 ± 0.02 ^a %
[1]; 3 hr after carrageenan
  Anti-Inflammatory Activity (% Inhibition of Edema): 63%
  % Change in Paw Height (Mean ± SEM): 0.20 ± 0.01 ^a %
[2]; n = 5
  Writhing Number in 20 min (Mean ± SEM): 25 ± 1.2 ^a
[2]; n = 5, 10 mg/kg
  Analgesic Activity (% protection): 51 ± 1.15 ^a %
[2]; n = 5, listed as sodium diclofenac, 10 mg/kg
  Analgesic Activity (% protection): 51%
